pIC50: −log10 of the molar value. Converted amounts (≈) assume the structure as drawn. The source made the active and inactive calls. No cut-off for these calls is given here.
Key:
[1] = Antioxidant activity assessed as total antioxidant capacity measured as ascorbic acid equivalents at 20 ug/ml after 90 mins by phosphomolybdenum method; format: functional
[2] = Antioxidant activity assessed as total antioxidant capacity measured as ascorbic acid equivalents at 60 ug/ml after 90 mins by phosphomolybdenum method; format: functional
MCF7 [3] = test: Induction of apoptosis in human MCF7 cells assessed as chromatin condensation at IC50 by DAPI staining-based fluorescence microscopic method; format: functional, cell-based
Bacillus subtilis [4] = test: Antibacterial activity against Bacillus subtilis MTCC 121 at 100 ug incubated for 24 hrs under dark condition by agar well diffusion method; format: functional; details: MTCC 121, 24 h, read-out: IZ
MCF7 [5] = test: Cytotoxicity against human MCF7 cells assessed as decrease in cell viability after 48 hrs by MTT assay; format: functional, cell-based; details: MCF7, 48 h
Escherichia coli [6] = test: Antibacterial activity against Escherichia coli MTCC 1652 at 100 ug incubated for 24 hrs under dark condition by agar well diffusion method; format: functional; details: MTCC 1652, 24 h, read-out: IZ
[7] = Antioxidant activity assessed as assessed as ferric ion reducing activity by measuring absorbance at 700 nm at 20 ug/ml after 20 mins by spectrophotometric method; format: functional
Pseudomonas aeruginosa [8] = test: Antibacterial activity against Pseudomonas aeruginosa MTCC 102 incubated for 24 hrs under dark condition by microwell dilution method; format: functional; details: MTCC 102, 24 h
A549 [9] = test: Cytotoxicity against human A549 cells assessed as decrease in cell viability after 48 hrs by MTT assay; format: functional, cell-based; details: A549, 48 h
MCF7 [10] = test: Induction of apoptosis in human MCF7 cells assessed as nuclear fragmentation at IC50 by DAPI staining-based fluorescence microscopic method; format: functional, cell-based
Pseudomonas aeruginosa [11] = test: Antibacterial activity against Pseudomonas aeruginosa MTCC 102 at 100 ug incubated for 24 hrs under dark condition by agar well diffusion method; format: functional; details: MTCC 102, 24 h, read-out: IZ
A549 [12] = test: Induction of apoptosis in human A549 cells assessed as nuclear fragmentation at IC50 by DAPI staining-based fluorescence microscopic method; format: functional, cell-based
Escherichia coli [13] = test: Antibacterial activity against Escherichia coli MTCC 1652 incubated for 24 hrs under dark condition by microwell dilution method; format: functional; details: MTCC 1652, 24 h
Staphylococcus aureus [14] = test: Antibacterial activity against Staphylococcus aureus MTCC 96 at 100 ug incubated for 24 hrs under dark condition by agar well diffusion method; format: functional; details: MTCC 96, 24 h, read-out: IZ
MCF7 [15] = test: Induction of apoptosis in human MCF7 cells assessed as cell shrinkage at IC50 after 48 hrs by acridine orange/ ethidium bromide staining-based fluorescence microscopic method; format: functional
[16] = Antioxidant activity assessed as assessed as ferric ion reducing activity by measuring absorbance at 700 nm at 60 ug/ml after 20 mins by spectrophotometric method; format: functional
A549 [17] = test: Induction of apoptosis in human A549 cells assessed as cell blebbing at IC50 after 48 hrs by acridine orange/ ethidium bromide staining-based fluorescence microscopic method; format: functional
[18] = Antioxidant activity assessed as total antioxidant capacity measured as ascorbic acid equivalents at 100 ug/ml after 90 mins by phosphomolybdenum method; format: functional
Staphylococcus aureus [19] = test: Antibacterial activity against Staphylococcus aureus MTCC 96 incubated for 24 hrs under dark condition by microwell dilution method; format: functional; details: MTCC 96, 24 h
[20] = Antioxidant activity assessed as assessed as ferric ion reducing activity by measuring absorbance at 700 nm at 100 ug/ml after 20 mins by spectrophotometric method; format: functional
A549 [21] = test: Induction of apoptosis in human A549 cells assessed as cell shrinkage at IC50 after 48 hrs by acridine orange/ ethidium bromide staining-based fluorescence microscopic method; format: functional
Bacillus subtilis [22] = test: Antibacterial activity against Bacillus subtilis MTCC 121 incubated for 24 hrs under dark condition by microwell dilution method; format: functional; details: MTCC 121, 24 h
A549 [23] = test: Induction of apoptosis in human A549 cells assessed as chromatin condensation at IC50 by DAPI staining-based fluorescence microscopic method; format: functional, cell-based
[24] = Antioxidant activity assessed as DPPH radical scavenging activity after 20 mins by UV/VIS Spectrophotometric method; format: functional
MCF7 [25] = test: Induction of apoptosis in human MCF7 cells assessed as cell blebbing at IC50 after 48 hrs by acridine orange/ ethidium bromide staining-based fluorescence microscopic method; format: functional

With `N#CC1=C(N)OC2=C(CNc3c2cccc3[N+](=O)[O-])C1c1cccs1` (stereo not given) the Activity [1] was 2.19 µgequiv/ml, the Activity [2] was 5.72 µgequiv/ml and the Activity (MCF7 [3]) was “Active”. For the same compound, the zone of inhibition at 100 µg/disc (Bacillus subtilis [4]) was 29 mm, the pIC50 (MCF7 [5]) was 4.85 and the zone of inhibition at 100 µg/disc (Escherichia coli [6]) was 22 mm. The OD [7] was 0.098, the MIC (Pseudomonas aeruginosa [8]) was 37 µg/mL (≈ 105 µM) and the pIC50 (A549 [9]) was 4.81. For the same compound, the Activity (MCF7 [10]) was “Active”, the zone of inhibition at 100 µg/disc (Pseudomonas aeruginosa [11]) was 20 mm and the Activity (A549 [12]) was “Active”. The MIC (Escherichia coli [13]) was 17 µg/mL (≈ 48.2 µM), the zone of inhibition at 100 µg/disc (Staphylococcus aureus [14]) was 23 mm and the Activity (MCF7 [15]) was “Active”. The OD [16] was 0.118, the Activity (A549 [17]) was “Active” and the Activity [18] was 11.8 µgequiv/ml. The MIC (Staphylococcus aureus [19]) was 5 µg/mL (≈ 14.2 µM), the OD [20] was 0.134 and the Activity (A549 [21]) was “Active”. The MIC (Bacillus subtilis [22]) was 5 µg/mL (≈ 14.2 µM), the Activity (A549 [23]) was “Active” and the IC50 [24] was 194.81 µg/mL (≈ 553 µM). The Activity (MCF7 [25]) was “Active”.
For `COc1ccc(C2C(C#N)=C(N)OC3=C2CNc2c3cccc2[N+](=O)[O-])cc1OC` (stereo not given), the Activity [1] was 4.04 µgequiv/ml, the Activity [2] was 9.51 µgequiv/ml and the zone of inhibition at 100 µg/disc (Bacillus subtilis [4]) was 15 mm. It also gave a pIC50 (MCF7 [5]) of 4.25, a zone of inhibition at 100 µg/disc (Escherichia coli [6]) of 12 mm and an OD [7] of 0.078. It also gave an MIC (Pseudomonas aeruginosa [8]) of 150 µg/mL (≈ 369 µM), a pIC50 (A549 [9]) of 4.30 and a zone of inhibition at 100 µg/disc (Pseudomonas aeruginosa [11]) of 13 mm. It also gave an MIC (Escherichia coli [13]) of 80.5 µg/mL (≈ 198 µM), a zone of inhibition at 100 µg/disc (Staphylococcus aureus [14]) of 14 mm and an OD [16] of 0.111. It also gave an Activity [18] of 13.7 µgequiv/ml, an MIC (Staphylococcus aureus [19]) of 40 µg/mL (≈ 98.4 µM) and an OD [20] of 0.157. The MIC (Bacillus subtilis [22]) was 20 µg/mL (≈ 49.2 µM) and the IC50 [24] was 124.38 µg/mL (≈ 306 µM).
For `O=[N+]([O-])c1cccc2c1NCC1C2=NN(c2ccccc2)C1c1ccc(F)cc1` (stereo not given), the Activity [1] was 4.02 µgequiv/ml, the Activity [2] was 7.36 µgequiv/ml and the zone of inhibition at 100 µg/disc (Bacillus subtilis [4]) was 18 mm. For the same compound, the pIC50 (MCF7 [5]) was 4.34, the zone of inhibition at 100 µg/disc (Escherichia coli [6]) was 21 mm and the OD [7] was 0.092. The MIC (Pseudomonas aeruginosa [8]) was 55.5 µg/mL (≈ 143 µM), the pIC50 (A549 [9]) was 4.63 and the zone of inhibition at 100 µg/disc (Pseudomonas aeruginosa [11]) was 18 mm. It also gave an MIC (Escherichia coli [13]) of 17 µg/mL (≈ 43.8 µM), a zone of inhibition at 100 µg/disc (Staphylococcus aureus [14]) of 20 mm and an OD [16] of 0.1. The Activity [18] was 11.2 µgequiv/ml, the MIC (Staphylococcus aureus [19]) was 10 µg/mL (≈ 25.7 µM) and the OD [20] was 0.112. For the same compound, the MIC (Bacillus subtilis [22]) was 12.5 µg/mL (≈ 32.2 µM) and the IC50 [24] was 205.13 µg/mL (≈ 528 µM).
For `O=[N+]([O-])c1cc(Cl)cc2c1NCC1C2=NNC1c1ccc(Cl)cc1` (stereo not given), the Activity [1] was 3.47 µgequiv/ml, the Activity [2] was 6.27 µgequiv/ml and the zone of inhibition at 100 µg/disc (Bacillus subtilis [4]) was 10 mm. For the same compound, the pIC50 (MCF7 [5]) was 4.11, the zone of inhibition at 100 µg/disc (Escherichia coli [6]) was 8 mm and the OD [7] was 0.072. It also gave an MIC (Pseudomonas aeruginosa [8]) of 100 µg/mL (≈ 275 µM), a pIC50 (A549 [9]) of 4.02 and a zone of inhibition at 100 µg/disc (Pseudomonas aeruginosa [11]) of 14 mm. The MIC (Escherichia coli [13]) was 97.5 µg/mL (≈ 268 µM), the zone of inhibition at 100 µg/disc (Staphylococcus aureus [14]) was 13 mm and the OD [16] was 0.083. It also gave an Activity [18] of 11.8 µgequiv/ml, an MIC (Staphylococcus aureus [19]) of 55 µg/mL (≈ 151 µM) and an OD [20] of 0.091. It also gave an MIC (Bacillus subtilis [22]) of 60 µg/mL (≈ 165 µM) and an IC50 [24] of 169.33 µg/mL (≈ 466 µM).
Work on `N#CC1=C(N)OC2=C(CNc3c2cccc3[N+](=O)[O-])C1c1ccc(F)cc1` (stereo not given) yielded an Activity [1] of 2.12 µgequiv/ml, an Activity [2] of 4.06 µgequiv/ml and a zone of inhibition at 100 µg/disc (Bacillus subtilis [4]) of 26 mm. The pIC50 (MCF7 [5]) was 4.45, the zone of inhibition at 100 µg/disc (Escherichia coli [6]) was 22 mm and the OD [7] was 0.085. For the same compound, the MIC (Pseudomonas aeruginosa [8]) was 37 µg/mL (≈ 102 µM), the pIC50 (A549 [9]) was 4.65 and the zone of inhibition at 100 µg/disc (Pseudomonas aeruginosa [11]) was 20 mm. The MIC (Escherichia coli [13]) was 17 µg/mL (≈ 46.7 µM), the zone of inhibition at 100 µg/disc (Staphylococcus aureus [14]) was 23 mm and the OD [16] was 0.098. It also gave an Activity [18] of 7.45 µgequiv/ml, an MIC (Staphylococcus aureus [19]) of 5 µg/mL (≈ 13.7 µM) and an OD [20] of 0.12. For the same compound, the MIC (Bacillus subtilis [22]) was 7.5 µg/mL (≈ 20.6 µM) and the IC50 [24] was 128.58 µg/mL (≈ 353 µM).
`O=[N+]([O-])c1cccc2c1NCC1C2=NN(c2ccccc2)C1c1ccccc1` (stereo not given) showed an Activity [1] of 5.18 µgequiv/ml, an Activity [2] of 10.8 µgequiv/ml and a zone of inhibition at 100 µg/disc (Bacillus subtilis [4]) of 8 mm. The pIC50 (MCF7 [5]) was 4.27, the zone of inhibition at 100 µg/disc (Escherichia coli [6]) was 12 mm and the OD [7] was 0.075. It also gave an MIC (Pseudomonas aeruginosa [8]) of 150 µg/mL (≈ 405 µM), a pIC50 (A549 [9]) of 4.22 and a zone of inhibition at 100 µg/disc (Pseudomonas aeruginosa [11]) of 14 mm. For the same compound, the MIC (Escherichia coli [13]) was 60 µg/mL (≈ 162 µM), the zone of inhibition at 100 µg/disc (Staphylococcus aureus [14]) was 8 mm and the OD [16] was 0.08. For the same compound, the Activity [18] was 14.9 µgequiv/ml, the MIC (Staphylococcus aureus [19]) was 60 µg/mL (≈ 162 µM) and the OD [20] was 0.096. The MIC (Bacillus subtilis [22]) was 60 µg/mL (≈ 162 µM) and the IC50 [24] was 146.85 µg/mL (≈ 396 µM).

— ChEMBL document CHEMBL4004883, “Biologically active perspective synthesis of heteroannulated 8-nitroquinolines with green chemistry approach” (Bioorg Med Chem Lett, 2017)
